# Tested on: ECL cells
# Assay: labelling index of ECL cells (HDC+PCNA double labelling) in oxyntic mucosa after 14 days once-daily treatment
# Assay type: in vivo, male SPF Wistar rats
# Details: rats, 25 mg/kg p.o. once daily for 14 days; compared with control group
# Procedure: This was measured according to the following experimental protocol. 40 male SPF Wistar rats (200 g) were divided into 4 treatment groups and 2 strata. The treatment of the 20 rats in the second stratum started 2 weeks after the treatment of the first stratum. The design of the study was completely randomised double blind with individual blinding; all rats were placed in a separate cage. Animals had continuous access to water and food. Animals were treated once daily during 14 days: [table] After removal of the fundus, the stomach were rinsed with phosphate buffered saline prior to fixation with 4% formalin in Millonig buffer. After 4 hours immersion in fixative solutions at room temperature, tissue was rinsed in phosphate buffered saline (PBS), dehydrated and embedded in paraffin using the Leitz paraffin embedding station (Leitz TP 1050; Germany) dehydration module and paraffin embedding module (Leitz EG 1160; Germany). Cross sections (3 μm thick) of the oxyntic part of the stomach were made at 3 levels, each separated by a distance of 400 μm. The following indirect immunofluorescence labeling method was used: removal of paraffin and rehydratation of the sections followed by a blocking step primary antibodies: polyclonal guinea pig anti-histidine decarboxylase, 1/2000 (from Euro-Diagnostica) and monoclonal mouse anti PCNA 1/2500 (Clone PC10 from Sigma). […]
smiles,measurement,value
"COCCCOc1ccnc(C[S+]([O-])c2nc3ccccc3[nH]2)c1C (stereo not shown) [rebeprazole, 2-[[4-(3-methoxypropoxy)-3-methylpyridin-2-yl]methylsulfinyl]-1H-benzimidazole]","labelling index of ECL cells, Mann-Whitney test P, treated group versus control group",0.04

# — patent US20030195240A1, “Pharmaceutical compositions comprising proton pump inhibitors and gastrin/cholecystokinin receptor ligands” (priority 2000, published 2003)
